Results published in patent US6602673B2, “Huntingtin-related therapeutics and bioassay” (University of Massachusetts, priority 1996, dated 2003).

Tested on: human fibroblasts
Test: Brefeldin A (BFA) treatment of human fibroblasts, immunofluorescence localization of huntingtin, 58 kDa Golgi protein and tubulin
Assay type: cell-based
Experimental: For the studies described herein, fibroblasts from passage number 10-15 were plated onto coverslips and grown in culture for 24-48 hours. Cells were rinsed briefly with phosphate buffered saline (PBS) and fixed for 10 minutes with 4% paraformaldehyde in PBS at room temperature. After fixation, cells were rinsed multiple times and stored at 4° C. in PBS. Huntingtin was immunolocalized in human fibroblasts using an affinity purified anti-peptide antibody, Ab 2527, at 2-4 μg/ml. In selected experiments, cells were also labeled with a monoclonal antiserum that recognizes clathrin heavy chain (2 μg/ml, Biodesign Int., Kennebunk, Me.), the Golgi-associated 58 kDa protein (ascites serum diluted 1:100, Sigma Chemical Co., St. Louis, Mo.), or human transferrin receptor (5 μg/ml, Zymed Laboratories Inc., San Francisco, Calif.). Cells were made permeable by a 30 minute incubation in 0.1% Triton® X-100 in PBS, rinsed several times, and blocked with 5% normal goat serum for 60 minutes prior to incubation in primary antibodies. All incubations, whether performed with a single type of antibody or two types of antibodies, were carried out overnight at 4° C. and were followed by multiple rinses in PBS. Secondary antibodies were used at a 1:400 dilution. A pooled mixture of either Texas Red goat anti-mouse IgG (Molecular Probes Inc., Eugene, Oreg.) and Bodipy FL anti-rabbit IgG (Molecular Probes Inc, Eugene, Oreg.) or Texas Red goat anti-mouse IgM (Vector Laboratories, Burlingame, Calif.) and Bodipy FL anti-rabbit IgG were used. For immunoperoxidase labeling, cells were rinsed several times after the primary incubation and an avidin/biotin blocking procedure was performed prior to the incubation in secondary antibody. A Vectastain ABC™ kit (Vector Laboratories, Burlingame, Calif.) was employed to localize the primary antibody, and diaminobenzidine was used as a substrate for visualization of the peroxidase reaction product. Sections were examined using conventional immunofluorescence microscopy and a Biorad 1024 laser confocal microscope. Image processing was performed with Adobe Photoshop™.
To further establish the association of huntingtin with Golgi membranes, cells were treated with the fungal metabolite Brefeldin A (BFA).
Cells were briefly rinsed with Hank's balanced salt solution (HBSS) and then incubated in complete medium containing BFA (5 μg/ml; Gibco/BRL). The cells were incubated at either 18° C. or 37° C. for 10 minutes, then rinsed briefly with 50 mM phosphate buffered saline (PBS; pH 7.4) and fixed immediately for 10 minutes with 4% paraformaldehyde in PBS at room temperature.

## C[C@H]1CCC/C=C/[C@@H]2C[C@H](O)C[C@H]2[C@H](O)/C=C/C(=O)O1 [BFA, Brefeldin A]
Compared to untreated cells
  Distribution of tubulin in BFA-treated cells: unchanged
Mild BFA treatment, 5 μg for 10 min at 18° C., human fibroblasts
  Huntingtin localization after mild BFA treatment: fragmented and dispersed
More severe BFA treatment, human fibroblasts
  Huntingtin localization after more severe BFA treatment: obliterated
Normal fibroblasts, +bfa, FIGS. 3C and 3D
  Localization of huntingtin and the 58 kDa protein in the presence of bfa (figure legend): more widely dispersed from the nucleus and the Golgi-membrane architecture is disrupted
